Measurements: patent US12679878B2, “CRF2 receptor agonists and their use in therapy” (SANOFI, priority 2020, dated 2026)
Read-outs that look alike come from different tables or passages of the source. Starred links: 1 amine or outer side, 2 acyl side, 3 side chain; linkers in the order of their positions; H or OH if unused. Non-standard residues stand in square brackets, D forms with d. Residues, ends and D or L forms follow the SMILES beside them. Groups on a side chain read outwards from the residue. *: point of attachment. C18 diacid = O=C(O)CCCCCCCCCCCCCCCCC(=O)*; γGlu = O=C(O)[C@H](CCC(=O)[*:2])N[*:1]; AEEA = NCCOCCOCC(=O)O; Aib = CC(C)(N)C(=O)O

Key:
[1] = target: T1, CRF1R receptor (Homo sapiens, UniProt P34998); experiment: cAMP activity at anti-target CRF1R, CHO-K1 cell line clone 2 (Example 19.10); type: cell-based; details: CRF1R CHO-K1 clone 2; for EC50: 0% HSA, read-out: EC50 [nM] 0% HSA; for Emax: 100% = Sauvagine at 100 nM
T1 construct: host or cells: CHO-K1 clone 2
T1 sequence (P34998 24-415): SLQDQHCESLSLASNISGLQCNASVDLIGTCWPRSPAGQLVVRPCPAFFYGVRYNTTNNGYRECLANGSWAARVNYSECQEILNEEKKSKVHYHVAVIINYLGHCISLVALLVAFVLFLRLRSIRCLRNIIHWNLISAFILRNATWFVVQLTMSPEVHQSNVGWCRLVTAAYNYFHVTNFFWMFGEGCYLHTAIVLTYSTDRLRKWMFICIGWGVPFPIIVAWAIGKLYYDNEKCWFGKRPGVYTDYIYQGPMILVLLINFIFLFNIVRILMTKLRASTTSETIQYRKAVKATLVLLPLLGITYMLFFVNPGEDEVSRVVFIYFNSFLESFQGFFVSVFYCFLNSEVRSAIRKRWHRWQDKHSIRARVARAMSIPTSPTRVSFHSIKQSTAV
Method in brief: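 A CRF1R-overexpressing CHO-K1 line (clone 2) was grown in F12/10% FBS/G418 and frozen in aliquots before use. The cAMP assay followed the preceding procedure, with 100% activation defined by Sauvagine at 100 nM.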

[2] = target: T2, human CRF2α receptor (Homo sapiens, UniProt Q13324); experiment: cAMP agonism at human CRF2 α receptor in TeloHEAC cells (Example 7); type: cell-based; details: cAMP HTRF, TeloHEAC cells stably expressing human CRF2 α
T2 construct: expressed in transfected cells; host or cells: TeloHEAC
T2 sequence (Q13324 1-411): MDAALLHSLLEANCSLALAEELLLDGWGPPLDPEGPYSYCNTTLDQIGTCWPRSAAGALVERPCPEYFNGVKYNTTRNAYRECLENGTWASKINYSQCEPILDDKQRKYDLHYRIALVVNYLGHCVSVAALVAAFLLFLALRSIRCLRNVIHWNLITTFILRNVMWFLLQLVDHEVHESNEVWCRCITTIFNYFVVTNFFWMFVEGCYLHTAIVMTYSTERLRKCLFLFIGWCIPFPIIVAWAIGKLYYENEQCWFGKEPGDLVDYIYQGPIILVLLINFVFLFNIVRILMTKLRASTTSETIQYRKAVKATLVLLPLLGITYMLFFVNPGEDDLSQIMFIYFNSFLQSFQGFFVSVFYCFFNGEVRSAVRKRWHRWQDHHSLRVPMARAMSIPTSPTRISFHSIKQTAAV
Method in brief: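 Thawed frozen stably transfected cells in HBSS/20 mM HEPES (0% or 0.1% HSA) plus 2 mM IBMX were exposed to compound at 2000 cells/well for 30 min at room temperature. Intracellular cAMP was read by HTRF (665/620 nm ratio) after 1 h lysis; EC50 was derived with 1000 nM urocortin 2 set as 100%.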

[3] = 0% HSA, read-out: EC50 [nM], 0% HSA
[4] = 0.1% HSA, read-out: EC50 [nM], 0.1% HSA

| EC50 [1] | Emax [1] | EC50 [2, 3] | EC50 [2, 4] | Compound |
| --- | --- | --- | --- | --- |
| > 100 nM | 15.4% | 0.41 nM | 15.3 nM | CC[C@H](C)[C@H](N)C(=O)N[C@H](C(=O)N[C@@H](CC(C)C)C(=O)N[C@@H](CO)C(=O)N[C@@H](CC(C)C)C(=O)N[C@@H](CC(=O)O)C(=O)N[C@H](C(=O)N1CCC[C@H]1C(=O)N[C@H](C(=O)N[C@@H](CCCCN)C(=O)N[C@@H](CC(C)C)C(=O)N[C@@H](CCCCNC(=O)COCCOCCNC(=O)COCCOCCNC(=O)CC[C@H](NC(=O)CCCCCCCCCCCCCCCCC(=O)O)C(=O)O)C(=O)N[C@@H](CCC(N)=O)C(=O)N[C@H](C(=O)N[C@@H](CC(C)C)C(=O)N[C@@H](CC(C)C)C(=O)N[C@@H](CCC(=O)O)C(=O)N[C@@H](CCC(N)=O)C(=O)N[C@@H](CCC(=O)O)C(=O)N[C@@H](CCCNC(=N)N)C(=O)N[C@@H](CCC(N)=O)C(=O)N[C@@H](CCCCN)C(=O)NC(C)(C)C(=O)N[C@@H](CCC(N)=O)C(=O)N[C@@H](CCCNC(=N)N)C(=O)N[C@@H](CCC(N)=O)C(=O)N[C@@H](CCC(N)=O)C(=O)N[C@@H](C)C(=O)N[C@@H](CCC(=O)O)C(=O)N[C@H](C(=O)N[C@@H](CC(N)=O)C(=O)N[C@@H](CCCCN)C(=O)N[C@@H](CCC(N)=O)C(=O)N[C@H](C(=O)N[C@@H](CC(C)C)C(=O)N[C@@H](C)C(=O)N[C@@H](CCC(N)=O)C(=O)N[C@H](C(N)=O)C(C)C)[C@@H](C)CC)[C@@H](C)O)[C@@H](C)CC)[C@@H](C)CC)C(C)C)C(C)C [compound 105] (H-IVLSLDVPIKLK([AEEA-AEEA-γGlu-C18 diacid])QILLEQERQK[Aib]QRQQAETNKQILAQV-NH2) |
| > 100 nM | 5.1% | 0.53 nM | 13.2 nM | CC[C@H](C)[C@H](N)C(=O)N[C@H](C(=O)N[C@@H](CC(C)C)C(=O)N[C@@H](CO)C(=O)N[C@@H](CC(C)C)C(=O)N[C@@H](CC(=O)O)C(=O)N[C@H](C(=O)N1CCC[C@H]1C(=O)N[C@H](C(=O)N[C@@H](CCCCN)C(=O)N[C@@H](CC(C)C)C(=O)N[C@@H](CCCCNC(=O)COCCOCCNC(=O)COCCOCCNC(=O)CC[C@H](NC(=O)CCCCCCCCCCCCCCCCC(=O)O)C(=O)O)C(=O)N[C@@H](CCC(N)=O)C(=O)N[C@H](C(=O)N[C@@H](CC(C)C)C(=O)N[C@@H](CC(C)C)C(=O)N[C@@H](CCC(=O)O)C(=O)N[C@@H](CCC(N)=O)C(=O)N[C@@H](CCC(=O)O)C(=O)N[C@@H](CCCNC(=N)N)C(=O)N[C@@H](CCC(N)=O)C(=O)N[C@@H](CCCCN)C(=O)NC(C)(C)C(=O)N[C@@H](CCC(N)=O)C(=O)N[C@@H](CCCNC(=N)N)C(=O)N[C@@H](CCC(=O)O)C(=O)N[C@@H](CCC(N)=O)C(=O)N[C@@H](C)C(=O)N[C@@H](CCC(=O)O)C(=O)N[C@H](C(=O)N[C@@H](CC(N)=O)C(=O)N[C@@H](CCCCN)C(=O)N[C@@H](CCC(N)=O)C(=O)N[C@H](C(=O)N[C@@H](CC(C)C)C(=O)N[C@@H](CCC(=O)O)C(=O)N[C@@H](CCCNC(=N)N)C(=O)N[C@H](C(N)=O)C(C)C)[C@@H](C)CC)[C@@H](C)O)[C@@H](C)CC)[C@@H](C)CC)C(C)C)C(C)C [compound 106] (H-IVLSLDVPIKLK([AEEA-AEEA-γGlu-C18 diacid])QILLEQERQK[Aib]QREQAETNKQILERV-NH2) |
| > 100 nM | -2% | 0.23 nM | – | CC[C@H](C)[C@H](N)C(=O)N[C@H](C(=O)N[C@@H](CC(C)C)C(=O)N[C@@H](CO)C(=O)N[C@@H](CC(C)C)C(=O)N[C@@H](CC(=O)O)C(=O)N[C@H](C(=O)N1CCC[C@H]1C(=O)N[C@H](C(=O)N[C@@H](CCCCN)C(=O)N[C@@H](CC(C)C)C(=O)N[C@@H](CCCCNC(=O)COCCOCCNC(=O)COCCOCCNC(=O)CC[C@H](NC(=O)CCCCCCCCCCCCCCCCC(=O)O)C(=O)O)C(=O)N[C@@H](CCC(N)=O)C(=O)N[C@H](C(=O)N[C@@H](CC(C)C)C(=O)N[C@@H](CC(C)C)C(=O)N[C@@H](CCCCN)C(=O)N[C@@H](CCC(N)=O)C(=O)N[C@@H](CCC(=O)O)C(=O)N[C@@H](CCCNC(=N)N)C(=O)N[C@@H](CCC(N)=O)C(=O)N[C@@H](CCCCN)C(=O)NC(C)(C)C(=O)N[C@@H](CCC(N)=O)C(=O)N[C@@H](CCCNC(=N)N)C(=O)N[C@@H](CCC(N)=O)C(=O)N[C@@H](CCCCN)C(=O)N[C@@H](C)C(=O)N[C@@H](CCC(=O)O)C(=O)N[C@H](C(=O)N[C@@H](CC(N)=O)C(=O)N[C@@H](CCCCN)C(=O)N[C@@H](CCC(N)=O)C(=O)N[C@H](C(=O)N[C@@H](CC(C)C)C(=O)N[C@@H](C)C(=O)N[C@@H](CCC(N)=O)C(=O)N[C@H](C(N)=O)C(C)C)[C@@H](C)CC)[C@@H](C)O)[C@@H](C)CC)[C@@H](C)CC)C(C)C)C(C)C [compound 108] (H-IVLSLDVPIKLK([AEEA-AEEA-γGlu-C18 diacid])QILLKQERQK[Aib]QRQKAETNKQILAQV-NH2; N-terminus assumed) |
| > 100 nM | 1.1% | 0.95 nM | – | CC[C@H](C)[C@H](N)C(=O)N[C@H](C(=O)N[C@@H](CC(C)C)C(=O)N[C@@H](CO)C(=O)N[C@@H](CC(C)C)C(=O)N[C@@H](CC(=O)O)C(=O)N[C@H](C(=O)N1CCC[C@H]1C(=O)N[C@H](C(=O)N[C@@H](CCCCN)C(=O)N[C@@H](CC(C)C)C(=O)N[C@@H](CCCCNC(=O)COCCOCCNC(=O)COCCOCCNC(=O)CC[C@H](NC(=O)CCCCCCCCCCCCCCCCC(=O)O)C(=O)O)C(=O)N[C@@H](CCC(N)=O)C(=O)N[C@H](C(=O)N[C@@H](CC(C)C)C(=O)N[C@@H](CC(C)C)C(=O)N[C@@H](CCCCN)C(=O)N[C@@H](CCC(N)=O)C(=O)N[C@@H](CCC(=O)O)C(=O)N[C@@H](CCCNC(=N)N)C(=O)N[C@@H](CCC(N)=O)C(=O)N[C@@H](CCCCN)C(=O)NC(C)(C)C(=O)N[C@@H](CCC(N)=O)C(=O)N[C@@H](CCCNC(=N)N)C(=O)N[C@@H](CCC(=O)O)C(=O)N[C@@H](CCCCN)C(=O)N[C@@H](C)C(=O)N[C@@H](CCC(=O)O)C(=O)N[C@H](C(=O)N[C@@H](CC(N)=O)C(=O)N[C@@H](CCCCN)C(=O)N[C@@H](CCC(N)=O)C(=O)N[C@H](C(=O)N[C@@H](CC(C)C)C(=O)N[C@@H](C)C(=O)N[C@@H](CCC(N)=O)C(=O)N[C@H](C(N)=O)C(C)C)[C@@H](C)CC)[C@@H](C)O)[C@@H](C)CC)[C@@H](C)CC)C(C)C)C(C)C [compound 109] (H-IVLSLDVPIKLK([AEEA-AEEA-γGlu-C18 diacid])QILLKQERQK[Aib]QREKAETNKQILAQV-NH2) |
| > 100 nM | 5.4% | 0.18 nM | – | CC[C@H](C)[C@H](N)C(=O)N[C@H](C(=O)N[C@@H](CC(C)C)C(=O)N[C@@H](CO)C(=O)N[C@@H](CC(C)C)C(=O)N[C@@H](CC(=O)O)C(=O)N[C@H](C(=O)N1CCC[C@H]1C(=O)N[C@H](C(=O)N[C@@H](CCCCN)C(=O)N[C@@H](CC(C)C)C(=O)N[C@@H](CCCCNC(=O)COCCOCCNC(=O)COCCOCCNC(=O)CC[C@H](NC(=O)CCCCCCCCCCCCCCCCC(=O)O)C(=O)O)C(=O)N[C@@H](CCC(N)=O)C(=O)N[C@H](C(=O)N[C@@H](CC(C)C)C(=O)N[C@@H](CC(C)C)C(=O)N[C@@H](CCCCN)C(=O)N[C@@H](CCC(N)=O)C(=O)N[C@@H](CCC(=O)O)C(=O)N[C@@H](CCCNC(=N)N)C(=O)N[C@@H](CCC(N)=O)C(=O)N[C@@H](CCCCN)C(=O)NC(C)(C)C(=O)N[C@@H](CCC(N)=O)C(=O)N[C@@H](CCCNC(=N)N)C(=O)N[C@@H](CCC(N)=O)C(=O)N[C@@H](CCC(N)=O)C(=O)N[C@@H](C)C(=O)N[C@@H](CCC(=O)O)C(=O)N[C@H](C(=O)N[C@@H](CC(N)=O)C(=O)N[C@@H](CCCCN)C(=O)N[C@@H](CCC(N)=O)C(=O)N[C@H](C(=O)N[C@@H](CC(C)C)C(=O)N[C@@H](C)C(=O)N[C@@H](CCC(N)=O)C(=O)N[C@H](C(N)=O)C(C)C)[C@@H](C)CC)[C@@H](C)O)[C@@H](C)CC)[C@@H](C)CC)C(C)C)C(C)C [compound 110] (H-IVLSLDVPIKLK([AEEA-AEEA-γGlu-C18 diacid])QILLKQERQK[Aib]QRQQAETNKQILAQV-NH2; N-terminus assumed) |
